Article PMC5321753, “Enhanced expression of ADCY1 underlies aberrant neuronal signalling and behaviour in a syndromic autism model” (Nature Communications, 2017)

Assays:
Assay type in all cases: in vivo, mouse
[1] = test system: WT and Fmr1 KO mice; test: 3-chamber social interaction test; conditions: NB001 1 mg kg^-1 IP, 1 h before testing; relative to WT level
Experimental: Social interaction was determined by the 3-chamber test as described. Mouse at 3 months (+/−10 days) of age was placed in a 3-chamber social interaction box and allowed to explore freely for 5 min. […] During the test, mouse was placed in the center chamber and the entrances to the side chambers were blocked. A novel stimulus mouse in a wire enclosure and an empty wire enclosure were placed in one of the side chambers, respectively. The entrances were then opened and the activity of the test mouse was recorded. Time spent in each of the chambers and time spent sniffing the stranger mouse enclosure versus the empty enclosure were recorded.
(§1) NB001 was dissolved in water to give a 25 mM stock solution. The stock was diluted in saline and IP injected into mice at 1 mg kg^−1 body weight. In all cases, the drug was administered 1 h before testing. Control mice were treated similarly but injected with saline.

[2] = test system: WT and Fmr1 KO mice; test: Light/dark test
Experimental: (§2) Light/dark test was examined as described in our previous study. Light/dark test was performed using 3-month (+/−10 days) old mouse, which was first placed in the dark half of the chamber (Coulbourn Instruments). After 1 min of habituation, the trap door was opened and the mouse was allowed to move freely between the two chambers for 5 min. The time spent in each chamber and the number of entries into the lit side were recorded.
as §1
(§3) To inhibit phosphodiesterase (PDE), rolipram was dissolved in 10% kolliphore and IP injected into mice at 0.5 or 0.03 mg kg^−1. The use of the higher dose (that is, 0.5 mg kg^−1) was to ensure sufficient inhibition of PDE[44][45]. […] Rolipram- or vehicle (10% kolliphore)-injected mice were examined with light/dark test and AGS 30 min after drug administration.

[3] = test system: ERK1/2; test: Immunoblot of phosphorylated and total ERK1/2 in hippocampus after i.p. injection; conditions: NB001 1 mg kg^-1 IP
Experimental: Hippocampal tissues were collected from 3-month-(+/−10 days) old mice. […] The primers used for Adcy1 were […] (forward) and […] (reverse). The protein levels in hippocampal tissues collected from mice were determined by western blot using anti-ADCY1 (Sigma, Cat # SAB4500146-100UG, 1:1,000 dilution), anti-p-ERK1/2 (Cell Signaling, Cat # 9101L, 1:1,000 dilution), anti-pAkt (Cell Signaling, Cat # 9271, 1:1,000 dilution), anti-pS6K1 (Cell Signaling, Cat # 9204L for the detection of phosphorylation at Thr421/Ser424, Cat # 9234S for the detection of phosphorylation at Thr389, 1:1,000 dilution), anti-ERK1/2 (Cell Signaling, Cat # 9102L, 1:1,000 dilution), anti-Akt (Cell Signaling, Cat # 9272S, 1:1,000 dilution), anti-S6K1 (Cell Signaling, Cat # 9202L, 1:1,000 dilution) and anti-β-actin antibody (Sigma, Cat # A5441; 1:5,000 dilution). Following incubations with infrared fluorescence (IRDye)-conjugated secondary antibodies (1:5,000, LI-COR Biosciences, Cat # 926–32211 and 926–68070), signals were detected using the Odyssey system (LI-COR Biosciences). The un-cropped western blots are shown in Supplementary Fig. 10.
as §1

[4] = test system: WT and Fmr1 KO mice; test: Marble burying test; conditions: NB001 1 mg kg^-1 IP, 1 h before testing
Experimental: (§4) Repetitive behaviour was determined by the marble burying test as described. 3-month-(+/−10 days) old mouse was placed in a regular mouse cage filled with 7.6 cm-deep bedding for 1 h before the test. The mouse was then briefly removed from the testing box and 15 marbles were evenly arranged in a 5 × 3 pattern on the surface of the bedding. The mouse was reintroduced into the testing box and was allowed to bury marbles for 10 min. At the end of the testing period, the number of marbles that were fully buried, partially buried and left on the surface was counted.
as §1

[5] = test system: mice; test: NB001 toxicology study (body weight, organ weight, histology)
Experimental: Mice at 3 months (+/−10 days) of age were IP injected with NB001 twice daily at 50 mg kg^−1 for 2 weeks. Clinical observations were performed twice daily and body weights were measured on various days during the dosing regimen. At the end of the dosing period, mice were killed and blood was collected for clinical pathology (Diagnostic Center for Population and Animal Health, Michigan State University). The liver and kidney were collected and fixed in 10% buffered formalin (INVIVO facility at Michigan State University).

[6] = test system: WT and Fmr1 KO mice; test: Audiogenic seizures (AGS) induced by 120 dB sound; conditions: NB001 1 mg kg^-1 IP; for % Clonic/tonic seizure / % Death / % Wild running: 1 h before testing, 120 dB
Experimental: Audiogenic seizures (AGS) were examined with 21- to 24-day-old-mouse (7), as this phenotype is dependent on the age of the mouse and only detected in juvenile Frm1 KO mouse. Mouse was placed in a box (30 cm L × 17 cm W × 12 cm H) with a flat plastic lid. A personal alarm (Streetwise, item # SWPDAL) was taped to the lid of the box and wired to a DC power supply to keep the sound amplitude constant. The mouse was allowed to acclimatize to the box for 5 min, following which 120 dB sound was emitted from the alarm for 2 min. The number of mice undergoing seizure activity within the 2-min period was counted. Audiogenic seizures were classified into different stages: wild running, clonic/tonic seizure and death.
as §1, §3

[7] = NB001 pharmacokinetic study, plasma and brain levels by LC/MS/MS
Experimental: Following IP injection of NB001 (20 mg kg^−1), mice were killed at various time points, and 0.5–0.8 ml of blood was drawn from a cardiac puncture into a 1 ml syringe, which was pre-treated with NaHeparin. The blood was collected into 1.5 ml microfuge tubes coated with NaHeparin and put on ice immediately. Samples were centrifuged at 15,000 r.p.m. for 15 min. Blood plasma was collected from the upper layer, leaving the blood cells in the tube. The plasma was frozen at −80 °C for later analysis. Brains were taken out and weighed immediately. Brains were frozen at −80 °C for later preparation and analysis. The samples were subjected to LC/MS/MS with Turbo-Ionspray Interface used in the positive ion-mode (Pharmacokinetics Core, University of Michigan). Mouse liver microsome stability assay was performed by the Pharmacokinetics Core at University of Michigan.

[8] = test system: WT mice; test: Behavioural examinations in WT mice (Fig. 5e-h; Table 2); conditions: NB001 1 mg kg^-1 IP, marble burying, light/dark, social interaction, AGS
Experimental: as §4
as §2, with “After 1 min of habituation, the trap door was opened and the mouse was allowed to move freely between the two chambers for 5 min.” left out
Audiogenic seizures (AGS) were examined with 21- to 24-day-old-mouse (7), as this phenotype is dependent on the age of the mouse and only detected in juvenile Frm1 KO mouse. […] The number of mice undergoing seizure activity within the 2-min period was counted. […]
Social interaction was determined by the 3-chamber test as described. […] The entrances were then opened and the activity of the test mouse was recorded. Time spent in each of the chambers and time spent sniffing the stranger mouse enclosure versus the empty enclosure were recorded. […]

[9] = NB001 50 mg kg^-1 IP twice a day for 14 days
[10] = IP injection, 20 mg kg^-1, mice

In the case of `Nc1ncnc2c1ncn2CCNCCCCCO` [NB001, 5-{[2-(6-amino-9H-purin-9-yl)ethyl]amino}-1-pentanol], the “reduced social interaction in Fmr1 KO mice” value [1] is reported as “normalized”, the “transition between the light and dark chambers, NB001-injected Fmr1 KO versus WT mice” value ([2]; NB001 1 mg kg^-1 IP, 1 h before testing) is reported as “comparable” and the “time spent in the lit chamber, difference between groups” value ([2]; WT and Fmr1 KO mice, vehicle or 1 mg per kg NB001) is reported as “not significant”. The “elevated level of p-ERK1/2 in the hippocampus” value ([3]; Fmr1 KO mice, 1 h after injection, relative to WT levels) was “normalized”, the “phosphorylation of ERK1/2 in WT mice” value ([3]; WT mice, hippocampus) was “did not cause measurable changes” and the “marble burying behaviour, NB001-injected Fmr1 KO versus WT mice” value [4] was “comparable”. The body weight [5, 9] was “did not affect”, the “weight of major organs including heart/lung, kidney and liver” value [5, 9] was “did not affect” and the “histopathology in kidney and liver” value ([5]; NB001 50 mg kg^-1 IP twice a day for 14 days, H&E staining) was “no significant sign of histopathology”. For the same molecule, the “side effects following two weeks of high dose administration” value ([5]; NB001 50 mg kg^-1 twice a day for 14 days) was “no significant side effects”, the “occurrence of AGS versus vehicle (saline)-injected controls” value ([6]; Fmr1 KO mice) was “less occurrence” and the “% Clonic/tonic seizure” value ([6]; Fmr1 KO mice) was 5.8%. For the same molecule, the “% Death” value ([6]; Fmr1 KO mice) was 5.8%, the “% Wild running” value ([6]; Fmr1 KO mice) was 35.2% and the “% Clonic/tonic seizure” value ([6]; WT mice) was 0%. The “% Death” value ([6]; WT mice) was 0%, the “% Wild running” value ([6]; WT mice) was 0% and the absorption to plasma [7, 10] was “absorbed to the blood stream”. For the same molecule, the distribution to brain [7, 10] was “distributed to the brain”, the blood-brain barrier crossing ([7]; conclusion from plasma/brain levels and ref 40) was “can cross the blood–brain barrier” and the “behaviour in WT mice” value [8] was “did not cause measurable changes”.
